Source: US20260263391A1, “COMPOUND AND USE THEREOF” (BENETHERA (SHAOXING) BIOTECHNOLOGY CO., LTD., priority 2023, published 2026)

Assays:
Psoriasis mouse model [1] = conditions: 0.025% ointment, 200 mg applied on the back for 6 consecutive days
Method: Psoriasis mouse model was established by intradermal injection of recombinant TL-23 (1 ng/20 μL PBS, per mouse per day for 4 consecutive days) into depilated mice on the back.
Each group was applied with different substances (as shown in Table 3) on the backs of the mice for 6 consecutive days. From Day 1, the symptoms of the back skin of the model mice and the mice in the treatment group were scored every day.

Psoriasis mouse model [2] = experiment: IL-23 psoriasis mouse model, comparative efficacy of Compound 1 ointment and Flecainide ointment, symptom score; format: in vivo, mice; conditions: 0.1% ointment; for therapeutic effect compared to the model group: 30 mg applied on the back for 4 consecutive days
Method: (§1) Psoriasis mouse model was established by intradermal injection of recombinant […] (1 ng/20 μL PBS, per mouse per day for 4 consecutive days) into depilated mice on the back.
Each group was applied with different substances (as shown in Table 1) on the backs of the mice for 4 consecutive days. The symptoms of the model mice and the treatment group mice were scored from Day 1.
The calculation rule or the number of days was: the number of days will be calculated from the end of modeling, which will be recorded as Day 0, followed by Day 1, Day 2, etc.
The formulation and preparation method of Flecainide ointment can be referred to as Example 4, which differed from Example 4 only in that the main drug was replaced with an equivalent amount of Flecainide (wherein the mass concentration of flecainide in the flecainide ointment was 0.1%).
(§2) Scoring criteria: 0 points, no symptom; 1 point, skin erythema; 2 points, scattered scurf, 3 points, diffuse dandruff, 4 points, skin sclerosis; 5 points, erythroderma or death.

Psoriasis mouse model [3] = experiment: IL-23 psoriasis mouse model, Compound 1 by subcutaneous or intradermal injection, symptom score; format: in vivo, mice; conditions: for symptom score: 4 consecutive days, scored on Day 6, scale 0-5
Method: as §1
On Day 2 after modeling, the psoriasis model mice were randomly divided into 3 groups, with the same number of mice in each group, and divided into a model group, treatment group (the treatment group included a subcutaneous treatment group and an intradermal treatment group), with the model group as a control. […] The model group was injected with 20 μL of normal saline intradermally. All three groups were injected for 4 consecutive days. On Day 6, the symptoms of the model and treatment groups were scored.
(§3) The calculation rule for the number of days was: the number of days will be calculated from the end of modeling, which will be recorded as Day 0, followed by Day 1, Day 2, etc.
as §2

Psoriasis mouse model [4] = conditions: ointment 30 mg applied for 4 consecutive days, scored on Day 6; 0.01%, 0.1%, 0.2%, 0.5%, 1% tested
Method: as §1, §3, §2

[5] = 30 mg applied on the back, scale 0-5

SMILES: CCCNC[C@H](O)COc1ccccc1C(=O)CCc1ccccc1 [Compound 2, S-propafenone]
- treatment effect (Psoriasis mouse model [1]): showed no treatment effect

SMILES: O=C(NCC1CCCCN1)c1cc(OCC(F)(F)F)ccc1OCC(F)(F)F (stereo not drawn) [Flecainide]
- therapeutic effect compared to the model group (Psoriasis mouse model [2]): neither the Flecainide ointment nor the ointment alone had a therapeutic effect
- symptom score on Day 2 (Psoriasis mouse model [2]; [5]): 3 points
- symptom score on Days 2 to 7 (Psoriasis mouse model [2]; 30 mg applied on the back, Days 2 to 7, scale 0-5): 3 points

SMILES: CCCNC[C@@H](O)COc1ccccc1C(=O)CCc1ccccc1 [Compound 3, R-propafenone]
- treatment effect (Psoriasis mouse model [1]): the treatment effect was more obvious

SMILES: CCCNCC(O)COc1ccccc1C(=O)CCc1ccccc1 (stereo not drawn) [Compound 1, propafenone]
- therapeutic effect in dosing explorations (Psoriasis mouse model [3]; intracutaneous injections at 10 μg, 20 μg, 50 μg, 100 μg, 200 μg, 500 μg, 1 mg, 2 mg, 5 mg and 10 mg): had therapeutic effects
- symptom score (Psoriasis mouse model [3]; intradermal injection on the back, 0.07 mg per mouse per day): ~2 points
- therapeutic effect compared with the model group and the subcutaneous treatment group (Psoriasis mouse model [3]; intradermal injection, 0.07 mg per mouse per day, Day 6): significant therapeutic effect
- symptom score (Psoriasis mouse model [3]; subcutaneous injection on the back, 0.07 mg per mouse per day): ~3 points
- therapeutic effect compared to the model group (Psoriasis mouse model [2]): significant therapeutic effect
- symptom score on Day 2 (Psoriasis mouse model [2]; [5]): 2 points
- symptom score on Days 3 to 4 (Psoriasis mouse model [2]; 30 mg applied on the back, Days 3 to 4, scale 0-5): 3 points
- symptom score on Days 7 and 8 (Psoriasis mouse model [2]; 30 mg applied on the back, Days 7 and 8, scale 0-5): 1 points
- symptom score from Day 5 (Psoriasis mouse model [2]; 30 mg applied on the back, from Day 5, scale 0-5): ≤ 2 points
- effective window dose of ointment (mass concentration) compared to the model group (Psoriasis mouse model [4]): 0.1%-0.5%
